According to ChEMBL document CHEMBL1124906, “5'-O-phosphonomethyl-2',3'-dideoxynucleosides: synthesis and anti-HIV activity” (J Med Chem, 1990):

How the values were obtained:
MT4 [1] = assay: Effective concentration achieving 50% protection of MT-4 cells against the cytopathic effect of HIV-1; format: functional, cell-based, Homo sapiens
MT4 [2] = assay: Cytotoxic concentration required to reduce the viability of normal uninfected MT-4 cells by 50%; format: functional, Homo sapiens
[3] = Selectivity index is the ratio of CC50 to EC50; format: functional
[4] = molecular target: Human immunodeficiency virus type 1 reverse transcriptase (Human immunodeficiency virus 1, UniProt Q72547); assay: Compound was evaluated for the 50% inhibitory concentration on human immunodeficiency virus associated reverse transcriptase

Structure (SMILES) | EC50 (MT4 [1]; Homo sapiens, MT4) [µM] | CC50 (MT4 [2]; Homo sapiens, MT4) [µM] | SI [3] | EC50 (MT4 [1]; mt4) [µM] | CC50 (MT4 [2]) [µM] | IC50 [4] [µM]
Cc1cn([C@H]2C[C@H](F)[C@@H](COCP(=O)(O)O)O2)c(=O)[nH]c1=O | 0.9 | 17.3 | 19 | – | – | –
Cc1cn([C@H]2C[C@H](N)[C@@H](COCP(=O)(O)O)O2)c(=O)[nH]c1=O | > 500 | > 500 | > 1 | – | – | –
Nc1ccn([C@H]2CC[C@@H](COCP(=O)(O)O)O2)c(=O)n1 | > 500 | > 500 | > 1 | – | – | –
Cc1cn([C@H]2C[C@H](F)[C@@H](COCP(=O)(O)OP(=O)(O)OP(=O)(O)O)O2)c(=O)[nH]c1=O (stereo in doubt; 30) | – | – | > 5 | 100 | > 500 | –
CCOP(=O)(O)COC[C@@H]1CC[C@H](N2CCC(=N)NC2=O)O1 | > 500 | > 500 | – | – | – | –
O=c1ccn([C@H]2CC[C@@H](COCP(=O)(O)O)O2)c(=O)[nH]1 | 90 | > 500 | > 5 | – | – | –
Cc1cn([C@H]2C[C@H](N=[N+]=[N-])[C@@H](COCP(=O)(O)O)O2)c(=O)[nH]c1=O | 1.28 | 161 | 125 | – | – | –
Cc1cn([C@H]2CC[C@@H](COCP(=O)(O)O)O2)c(=O)[nH]c1=O | 500 | > 500 | > 1 | – | – | –
CC1CN([C@H]2C[C@H](N=[N+]=[N-])[C@@H](COCP(=O)(O)OP(=O)(O)OP(=O)(O)O)O2)C(=O)NC1=O (some centres undefined) | – | – | – | – | – | 322
Cc1cn([C@H]2C[C@H](N=[N+]=[N-])[C@@H](CO)O2)c(=O)[nH]c1=O [ZIDOVUDINE] | 0.003 | 4.8 | 1600 | – | – | –
CO[C@H]1C[C@H](n2cc(C)c(=O)[nH]c2=O)O[C@@H]1COCP(=O)(O)O | 500 | > 500 | > 1 | – | – | –
Cc1cn([C@H]2C[C@H](N=[N+]=[N-])[C@@H](COCP(=O)(O)OP(=O)(O)OP(=O)(O)O)O2)c(=O)[nH]c1=O | 1.15 | 0.023 | – | – | – | –
Cc1cn([C@H]2C[C@H](F)[C@@H](CO)O2)c(=O)[nH]c1=O [ALOVUDINE] | 0.001 | – | 197 | – | – | –
